This passage reports GI50 and TGI results from PubChem BioAssay (NCI).

Some test systems named below: TK-10 renal; SK-MEL-28 melanoma; LOX IMVI melanoma; NCI/ADR-RES ovarian; ACHN renal; RPMI-8226 leukemia; SF-268 CNS; SF-295 CNS; 786-0 renal; HOP-62 NSCLC.
Common to all, as to test: NCI anticancer screen, dose series, 48 h

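Five concentrations, 48 hours, 96-well plates. GI50: concentration for 50% inhibition of growth. The concentration for full growth arrest is given as TGI.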

Take `OCC1OC(N2C=C(c3nc4ccccc4s3)C3C=CC=CC32)C(O)C1O` (stereo not given): the GI50 with TK-10 renal was 6.65 µM; in the experiment with SK-MEL-28 melanoma, 10.8 µM; with LOX IMVI melanoma, 7.1 µM; in the experiment on NCI/ADR-RES ovarian it was 12.2 µM; with ACHN renal, 4.36 µM; in the experiment with RPMI-8226 leukemia, 7.57 µM. Also, the GI50 is 8.11 µM with SF-268 CNS, 13.1 µM in the experiment on SF-295 CNS, 8.68 µM in the experiment on 786-0 renal and 16 µM in the experiment with HOP-62 NSCLC. In addition, the TGI in the experiment with TK-10 renal amounted to 21.9 µM; with SK-MEL-28 melanoma, 27.8 µM; in the experiment with LOX IMVI melanoma, 18 µM; in the experiment on NCI/ADR-RES ovarian, 36.9 µM; in the experiment on ACHN renal, 12.4 µM; with RPMI-8226 leukemia, 21.8 µM. Also, the TGI was above 50 µM with SF-268 CNS, 43.6 µM in the experiment on SF-295 CNS, 19.5 µM with 786-0 renal and above 50 µM with HOP-62 NSCLC.
For the molecule `CC1(C)C(=O)/C(=C\c2ccco2)C[C@]2(C)[C@H]3CC=C4[C@@H]5C[C@](C)(C(=O)O)CC[C@]5(C)CC[C@@]4(C)[C@]3(C)CC[C@@H]12`, the GI50 with TK-10 renal was 13.1 µM; in the experiment on SK-MEL-28 melanoma it was 15.1 µM; in the experiment on LOX IMVI melanoma it was 9.56 µM; with NCI/ADR-RES ovarian, 10 µM; in the experiment on ACHN renal it was 6.9 µM; in the experiment on RPMI-8226 leukemia, 4.2 µM. For the same molecule, the GI50 in the experiment with SF-268 CNS is 12.1 µM; in the experiment with SF-295 CNS, 7.06 µM; with 786-0 renal, 9.51 µM; with HOP-62 NSCLC, 10.1 µM. Also, the TGI in the experiment on TK-10 renal was 36.7 µM; with SK-MEL-28 melanoma it was 31.1 µM; in the experiment with LOX IMVI melanoma, 22.2 µM; in the experiment with NCI/ADR-RES ovarian, 29.2 µM; in the experiment on ACHN renal it was 21.1 µM; with RPMI-8226 leukemia it was 47.9 µM. Also, the TGI worked out at 28.2 µM in the experiment with SF-268 CNS, 24.6 µM in the experiment on SF-295 CNS, 25 µM with 786-0 renal and 28.5 µM with HOP-62 NSCLC.
Take `N#CC1C(N)=NNC1c1ccc(-c2ccc(-c3nc4ccccc4o3)cc2)o1` (stereo not given): the GI50 was 25.5 µM in the experiment with TK-10 renal; 26 µM in the experiment with SK-MEL-28 melanoma; 23.3 µM in the experiment with LOX IMVI melanoma; 36 µM with NCI/ADR-RES ovarian; 14.6 µM with ACHN renal; 28.6 µM with RPMI-8226 leukemia. Also, the GI50 with SF-268 CNS was 20 µM; in the experiment with SF-295 CNS, 66.4 µM; with 786-0 renal, above 100 µM; in the experiment with HOP-62 NSCLC, above 100 µM. Besides, the TGI was 74.7 µM with TK-10 renal; above 100 µM with SK-MEL-28 melanoma; 64.7 µM in the experiment with LOX IMVI melanoma; 75.6 µM in the experiment with NCI/ADR-RES ovarian; 51.7 µM in the experiment with ACHN renal; above 100 µM in the experiment with RPMI-8226 leukemia. The TGI with SF-268 CNS was 51.7 µM; in the experiment on SF-295 CNS, above 100 µM; with 786-0 renal, above 100 µM; with HOP-62 NSCLC, above 100 µM.
With `Nc1ccc2c(c1)[O][Sn]([c]1ccccc1)([c]1ccccc1)[O]C2=O`, the GI50 in the experiment with TK-10 renal was 7.34 µM; in the experiment with SK-MEL-28 melanoma, 5.02 µM; in the experiment with LOX IMVI melanoma, 3.57 µM; with NCI/ADR-RES ovarian it was 9.08 µM; in the experiment with ACHN renal it was 11.9 µM; in the experiment on RPMI-8226 leukemia it was 2.5 µM. The GI50 is 7.63 µM in the experiment on SF-268 CNS, 6.38 µM in the experiment with SF-295 CNS, 3.79 µM in the experiment on 786-0 renal and 19.6 µM with HOP-62 NSCLC. For the same molecule, the TGI in the experiment with TK-10 renal turned out to be 15.6 µM; in the experiment with SK-MEL-28 melanoma, 12.4 µM; in the experiment with LOX IMVI melanoma, 11.5 µM; with NCI/ADR-RES ovarian, 30.2 µM; in the experiment with ACHN renal, 25.4 µM; with RPMI-8226 leukemia, 10.7 µM. The TGI with SF-268 CNS is 21.2 µM; in the experiment with SF-295 CNS, 14.5 µM; in the experiment on 786-0 renal, 7.95 µM; in the experiment with HOP-62 NSCLC, 34.9 µM.
With `CCN(CC)CC(C)Nc1ccc(C)c2sc3ccccc3c(=O)c12` (stereo not given), the GI50 in the experiment on TK-10 renal was 4.83 µM; in the experiment on SK-MEL-28 melanoma, 1.73 µM; with LOX IMVI melanoma, 1.52 µM; with NCI/ADR-RES ovarian it was 5.56 µM; in the experiment with ACHN renal, 3.88 µM; in the experiment on RPMI-8226 leukemia, 2.32 µM. Also, the GI50 was 6.24 µM in the experiment with SF-268 CNS, 2.66 µM in the experiment on SF-295 CNS, 3.14 µM with 786-0 renal and 2.63 µM in the experiment with HOP-62 NSCLC. In addition, the TGI in the experiment on TK-10 renal worked out at 17.6 µM; in the experiment with SK-MEL-28 melanoma, 3.41 µM; with LOX IMVI melanoma, 3.99 µM; with NCI/ADR-RES ovarian, 18.7 µM; in the experiment on ACHN renal it was 15.1 µM; with RPMI-8226 leukemia it was 6.81 µM. For the same molecule, the TGI with SF-268 CNS worked out at 18.4 µM; with SF-295 CNS, 8.56 µM; in the experiment on 786-0 renal it was 11.2 µM; with HOP-62 NSCLC, 8.67 µM.
